Experiments:
ΔF508-CFTR [1] = target: T1, ΔF508-CFTR (Homo sapiens, UniProt P13569, DEL508-508); assay: CFTR cell surface levels using HRP-tagged ΔF508-CFTR expressing CFBE cells, intrinsic corrector capacity; format: cell-based; settings: for EC50: read-out: EC50
T1 construct: host or cells: CFBE41o-, doxycycline-inducible
Outline: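 Here the cells express ΔF508-CFTR with horseradish peroxidase inserted in extracellular loop 4, so only rescued channel at the surface gives luminescent signal. Compounds act on their own, 20 h at the reduced temperature of 33 °C; values are percent activity relative to DMSO and a 3 μM corrector.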

ΔF508-CFTR [2] = target: T1, ΔF508-CFTR; assay: CFTR cell surface levels using HRP-tagged ΔF508-CFTR expressing CFBE cells, in the presence of a co-corrector; format: cell-based; settings: HRP-tagged ΔF508-CFTR expressing CFBE cells, in the presence of 3 μM co-corrector; for EC50: read-out: EC50
Outline: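 Cells were seeded with 0.5 μg/mL doxycycline and held 68 h at 37 °C. Test compounds plus 3 μM co-corrector (final 0.1% DMSO) were then added for 20 h at 33 °C. Washed cells received HRP substrate, and luminescence was normalized between DMSO and 3 μM co-corrector controls.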

[3] = HRP-tagged ΔF508-CFTR expressing CFBE cells, intrinsic corrector capacity (no co-corrector), 33° C., 20 hours
[4] = HRP-tagged ΔF508-CFTR CFBE41o- cells, compounds alone (intrinsic corrector capacity), 20 hours at 33° C., positive control 3 μM corrector
[5] = HRP-tagged ΔF508-CFTR CFBE41o- cells, compounds alone (intrinsic corrector capacity), 20 hours at 33° C.

T1 sequence (P13569 with tags, fused parts or gaps DEL508-508): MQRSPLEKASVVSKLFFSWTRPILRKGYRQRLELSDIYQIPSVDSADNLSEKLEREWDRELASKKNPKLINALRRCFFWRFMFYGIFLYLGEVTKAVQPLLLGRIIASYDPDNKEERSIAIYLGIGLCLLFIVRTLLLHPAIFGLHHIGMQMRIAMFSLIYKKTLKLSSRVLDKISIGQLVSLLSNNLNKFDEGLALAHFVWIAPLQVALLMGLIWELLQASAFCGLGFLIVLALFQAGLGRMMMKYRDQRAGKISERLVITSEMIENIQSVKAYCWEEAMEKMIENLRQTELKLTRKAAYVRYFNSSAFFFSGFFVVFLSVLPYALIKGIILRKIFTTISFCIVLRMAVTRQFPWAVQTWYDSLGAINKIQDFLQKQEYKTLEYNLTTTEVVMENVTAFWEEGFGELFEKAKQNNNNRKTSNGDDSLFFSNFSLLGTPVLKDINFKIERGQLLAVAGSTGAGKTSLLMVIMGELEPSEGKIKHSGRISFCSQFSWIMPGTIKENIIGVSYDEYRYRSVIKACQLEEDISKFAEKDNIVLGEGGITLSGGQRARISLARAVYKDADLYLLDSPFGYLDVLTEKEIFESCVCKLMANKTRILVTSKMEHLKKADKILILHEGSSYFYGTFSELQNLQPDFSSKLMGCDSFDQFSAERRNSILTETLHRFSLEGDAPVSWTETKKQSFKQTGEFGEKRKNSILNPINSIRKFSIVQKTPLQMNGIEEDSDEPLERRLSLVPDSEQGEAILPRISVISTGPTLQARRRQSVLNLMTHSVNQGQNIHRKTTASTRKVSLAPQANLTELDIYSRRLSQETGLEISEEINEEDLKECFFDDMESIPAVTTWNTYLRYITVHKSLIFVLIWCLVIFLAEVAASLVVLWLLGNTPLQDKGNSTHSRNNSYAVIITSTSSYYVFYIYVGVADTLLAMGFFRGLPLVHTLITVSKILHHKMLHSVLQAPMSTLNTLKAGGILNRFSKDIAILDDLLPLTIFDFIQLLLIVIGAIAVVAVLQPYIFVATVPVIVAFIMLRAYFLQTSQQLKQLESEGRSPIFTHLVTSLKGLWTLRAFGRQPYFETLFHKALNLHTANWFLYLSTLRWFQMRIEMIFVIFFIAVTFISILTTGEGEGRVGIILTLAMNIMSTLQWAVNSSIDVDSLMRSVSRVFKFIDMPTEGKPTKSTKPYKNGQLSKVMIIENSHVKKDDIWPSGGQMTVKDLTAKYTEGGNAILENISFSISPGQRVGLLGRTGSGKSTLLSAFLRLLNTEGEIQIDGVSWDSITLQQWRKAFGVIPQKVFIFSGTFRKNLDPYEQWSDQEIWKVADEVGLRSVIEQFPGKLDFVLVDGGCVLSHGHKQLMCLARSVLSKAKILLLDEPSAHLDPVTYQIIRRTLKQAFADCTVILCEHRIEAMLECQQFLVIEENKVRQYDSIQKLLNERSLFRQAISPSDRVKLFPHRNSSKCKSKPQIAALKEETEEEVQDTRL

SMILES: O=C(O)c1cc(N2CCC(N3CCCCC3)CC2)c2c(C3CCC3)nn(-c3ccc(F)cc3)c2n1 [compound 693, 4-([1,4′-bipiperidin]-1′-yl)-3-cyclobutyl-1-(4-fluorophenyl)-1H-pyrazolo[3,4-b]pyridine-6-carboxylic acid]
- % Activation (ΔF508-CFTR [1]; [3]): 185.9%
- EC50 (ΔF508-CFTR [1]; [3]): 1270 nM
- % Activation (ΔF508-CFTR [2]): 392.45%
- EC50 (ΔF508-CFTR [2]): 325 nM

SMILES: CC(C)c1nn(-c2cc(F)cc(F)c2)c2nc(C(=O)O)cc(-c3cnc(N(C)C4CCOCC4)nc3)c12 [compound 317, 1-(3,5-difluorophenyl)-4-{2-[methyl(oxan-4-yl)amino]pyrimidin-5-yl}-3-(propan-2-yl)-1H-pyrazolo[3,4-b]pyridine-6-carboxylic acid]
- % Activation (ΔF508-CFTR [1]; [4]): 216.25%
- EC50 (ΔF508-CFTR [1]; [5]): 695 nM
- % Activation (ΔF508-CFTR [2]): 433.4%
- EC50 (ΔF508-CFTR [2]): 972 nM

SMILES: Cc1nn(-c2ccccc2)c2nc(C(=O)O)cc(OC[C@@H](F)C3CCOCC3)c12 [compound 335, 4-[(2S)-2-fluoro-2-(oxan-4-yl)ethoxy]-3-methyl-I-phenyl-1H-pyrazolo[3,4-b]pyridine-6-carboxylic acid]
- % Activation (ΔF508-CFTR [1]; [4]): 100.33%
- EC50 (ΔF508-CFTR [1]; [5]): 1610 nM
- % Activation (ΔF508-CFTR [2]): 259.25%
- EC50 (ΔF508-CFTR [2]): 1380 nM

SMILES: O=C(O)c1cc(N2CC[C@@H](O)[C@H](F)C2)c2c(C3CCC3)nn(-c3ccccc3)c2n1 [compound 464, 3-cyclobutyl-4-[(3R,4R)-3-fluoro-4-hydroxypiperidin-1-yl]-1-phenyl-1H-pyrazolo[3,4-b]pyridine-6-carboxylic acid]
- % Activation (ΔF508-CFTR [1]; [3]): 163.6%
- EC50 (ΔF508-CFTR [1]; [3]): 1140 nM
- % Activation (ΔF508-CFTR [2]): 328.25%
- EC50 (ΔF508-CFTR [2]): 408 nM

SMILES: CC(C)c1nn(-c2ccc(F)cc2)c2nc(C(=O)O)cc(N3CC(N4CCOCC4)C3)c12 [compound 765, 1-(4-fluorophenyl)-4-[3-(morpholin-4-yl)azetidin-1-yl]-3-(propan-2-yl)-1H-pyrazolo[3,4-b]pyridine-6-carboxylic acid]
- % Activation (ΔF508-CFTR [1]; [3]): 45.48%
- EC50 (ΔF508-CFTR [1]; [3]): 1670 nM
- % Activation (ΔF508-CFTR [2]): 181.3%
- EC50 (ΔF508-CFTR [2]): 738 nM

SMILES: CC(C)(C)OC(=O)N1CC(c2nn(-c3ccccc3)c3nc(C(=O)O)cc(-c4ccc(N5CCOCC5)cc4)c23)C1 [compound 47, 3-[1-(tert-butoxycarbonyl)azetidin-3-yl]-4-[4-(morpholin-4-yl)phenyl]-1-phenyl-1H-pyrazolo[3,4-b]pyridine-6-carboxylic acid]
- % Activation (ΔF508-CFTR [1]; [4]): 183.2%
- EC50 (ΔF508-CFTR [1]; [5]): 608 nM
- % Activation (ΔF508-CFTR [2]): 390.5%
- EC50 (ΔF508-CFTR [2]): 567 nM

SMILES: COCC1(F)CCCN(c2cc(C(=O)O)nc3c2c(C2CCC2)nn3-c2ccccc2)C1 (stereo not shown) [compound 595, 3-cyclobutyl-4-[3-fluoro-3-(methoxymethyl)piperidin-1-yl]-1-phenyl-1H-pyrazolo[3,4-b]pyridine-6-carboxylic acid]
- % Activation (ΔF508-CFTR [1]; [3]): 162.8%
- EC50 (ΔF508-CFTR [1]; [3]): 347 nM
- % Activation (ΔF508-CFTR [2]): 383.8%
- EC50 (ΔF508-CFTR [2]): 207 nM

SMILES: COCCN(C)c1ccc(-c2cc(C(=O)O)nc3c2c(C(C)C)nn3C2CCCCC2)cc1 [compound 184, 1-cyclohexyl-4-{4-[(2-methoxyethyl)(methyl)amino]phenyl}-3-(propan-2-yl)-1H-pyrazolo[3,4-b]pyridine-6-carboxylic acid]
- % Activation (ΔF508-CFTR [1]; [4]): 170.25%
- EC50 (ΔF508-CFTR [1]; [5]): 942 nM
- % Activation (ΔF508-CFTR [2]): 377.4%
- EC50 (ΔF508-CFTR [2]): 677 nM

SMILES: O=C(O)c1cc(N2CCC(F)(CO)CC2)c2c(C3CCC3)nn(-c3ccccc3)c2n1 [compound 517, 3-cyclobutyl-4-[4-fluoro-4-(hydroxymethyl)piperidin-1-yl]-1-phenyl-1H-pyrazolo[3,4-b]pyridine-6-carboxylic acid]
- % Activation (ΔF508-CFTR [1]; [3]): 82.63%
- EC50 (ΔF508-CFTR [1]; [3]): 646 nM
- % Activation (ΔF508-CFTR [2]): 303.2%
- EC50 (ΔF508-CFTR [2]): 575 nM

SMILES: CS(=O)(=O)C1(COc2cc(C(=O)O)nc3c2c(C2CCC2)nn3-c2ccccc2)CCOCC1 [compound 627, 3-cyclobutyl-4-{[4-(methanesulfonyl)oxan-4-yl]methoxy}-1-phenyl-1H-pyrazolo[3,4-b]pyridine-6-carboxylic acid]
- % Activation (ΔF508-CFTR [1]; [3]): 9.221%
- EC50 (ΔF508-CFTR [1]; [3]): > 10000 nM
- % Activation (ΔF508-CFTR [2]): 126.25%
- EC50 (ΔF508-CFTR [2]): > 10000 nM

SMILES: CN1C(=O)CO[C@@H]2CN(c3cc(C(=O)O)nc4c3c(C3CCC3)nn4-c3ccccc3)C[C@@H]21 [compound 503, 3-cyclobutyl-4-[(4aS,7aR)-4-methyl-3-oxohexahydropyrrolo[3,4-b][1,4]oxazin-6(2H)-yl]-1-phenyl-1H-pyrazolo[3,4-b]pyridine-6-carboxylic acid]
- % Activation (ΔF508-CFTR [1]; [3]): 65.78%
- EC50 (ΔF508-CFTR [1]; [3]): 3340 nM
- % Activation (ΔF508-CFTR [2]): 220.8%
- EC50 (ΔF508-CFTR [2]): 3190 nM

SMILES: COC1CCN(c2ccc(-c3cc(C(=O)O)nc4c3c(C(C)C)nn4C3CCCCC3)cn2)C1 (stereo not shown) [compound 224, 1-cyclohexyl-4-[6-(3-methoxypyrrolidin-1-yl)pyridin-3-yl]-3-(propan-2-yl)-1H-pyrazolo[3,4-b]pyridine-6-carboxylic acid]
- % Activation (ΔF508-CFTR [1]; [4]): 189.6%
- EC50 (ΔF508-CFTR [1]; [5]): 1180 nM
- % Activation (ΔF508-CFTR [2]): 396.65%
- EC50 (ΔF508-CFTR [2]): 896 nM

SMILES: Cc1nn(-c2ccccc2)c2nc(C(=O)O)cc(N3CCC4(CCCO4)C3)c12 (stereo not shown) [compound 311, 3-methyl-4-(1-oxa-7-azaspiro[4.4]nonan-7-yl)-1-phenyl-1H-pyrazolo[3,4-b]pyridine-6-carboxylic acid]
- % Activation (ΔF508-CFTR [1]; [4]): 53.7%
- EC50 (ΔF508-CFTR [1]; [5]): 2510 nM
- % Activation (ΔF508-CFTR [2]): 195.5%
- EC50 (ΔF508-CFTR [2]): 2140 nM

SMILES: Cc1nn(-c2ccccc2)c2nc(C(=O)O)cc(OC3CC4(COC4)C3)c12 [compound 344, 3-methyl-4-[(2-oxaspiro[3.3]heptan-6-yl)oxy]-1-phenyl-1H-pyrazolo[3,4-b]pyridine-6-carboxylic acid]
- % Activation (ΔF508-CFTR [1]; [4]): 69.225%
- EC50 (ΔF508-CFTR [1]; [5]): 2510 nM
- % Activation (ΔF508-CFTR [2]): 218.25%
- EC50 (ΔF508-CFTR [2]): 1770 nM

SMILES: COCCN(C)c1ccc(-c2cc(C(=O)O)nc3c2c(C(C)C)nn3-c2cccc(N3CCC3)c2)cn1 [compound 239, 1-[3-(azetidin-1-yl)phenyl]-4-{6-[(2-methoxyethyl)(methyl)amino]pyridin-3-yl}-3-(propan-2-yl)-1H-pyrazolo[3,4-b]pyridine-6-carboxylic acid]
- % Activation (ΔF508-CFTR [1]; [4]): 327.55%
- EC50 (ΔF508-CFTR [1]; [5]): 875 nM
- % Activation (ΔF508-CFTR [2]): 495.85%
- EC50 (ΔF508-CFTR [2]): 713 nM

SMILES: COCC1CCN(c2cc(C(=O)O)nc3c2c(C(C)C)nn3CC(C)C)CC1 [compound 548, 4-[4-(methoxymethyl)piperidin-1-yl]-1-(2-methylpropyl)-3-(propan-2-yl)-1H-pyrazolo[3,4-b]pyridine-6-carboxylic acid]
- % Activation (ΔF508-CFTR [1]; [3]): 88.93%
- EC50 (ΔF508-CFTR [1]; [3]): 2540 nM
- % Activation (ΔF508-CFTR [2]): 306%
- EC50 (ΔF508-CFTR [2]): 3330 nM

SMILES: CN(C)[C@H]1C[C@@H](Oc2cc(C(=O)O)nc3c2c(C2CCC2)nn3-c2ccccc2)C1 [compound 492, 3-cyclobutyl-4-{[cis-3-(dimethylamino)cyclobutyl]oxy}-1-phenyl-1H-pyrazolo[3,4-b]pyridine-6-carboxylic acid]
- % Activation (ΔF508-CFTR [1]; [3]): 84.2%
- EC50 (ΔF508-CFTR [1]; [3]): 2370 nM
- % Activation (ΔF508-CFTR [2]): 239.55%
- EC50 (ΔF508-CFTR [2]): 2510 nM

SMILES: Cc1nn(-c2ccccc2)c2nc(C(=O)O)cc(O[C@@H]3CCN(C)C3)c12 [compound 338, 3-methyl-4-{[(3R)-1-methylpyrrolidin-3-yl]oxy}-1-phenyl-1H-pyrazolo[3,4-b]pyridine-6-carboxylic acid]
- % Activation (ΔF508-CFTR [1]; [4]): 12.64%
- EC50 (ΔF508-CFTR [1]; [5]): 7500 nM
- % Activation (ΔF508-CFTR [2]): 135.7%
- EC50 (ΔF508-CFTR [2]): 7500 nM

SMILES: CC1(COc2cc(C(=O)O)nc3c2c(C2CCC2)nn3-c2ccccc2)CC1 [compound 630, 3-cyclobutyl-4-[(1-methylcyclopropyl)methoxy]-1-phenyl-1H-pyrazolo[3,4-b]pyridine-6-carboxylic acid]
- % Activation (ΔF508-CFTR [1]; [3]): 136.15%
- EC50 (ΔF508-CFTR [1]; [3]): 308 nM
- % Activation (ΔF508-CFTR [2]): 323.7%
- EC50 (ΔF508-CFTR [2]): 254 nM

SMILES: CC(C)c1nn(-c2ccnc(N3CCOCC3)c2)c2nc(C(=O)O)cc(-c3ccc(N4CCC(C#N)CC4)nc3)c12 [compound 437, 4-[6-(4-cyanopiperidin-1-yl)pyridin-3-yl]-1-[2-(morpholin-4-yl)pyridin-4-yl]-3-(propan-2-yl)-1H-pyrazolo[3,4-b]pyridine-6-carboxylic acid]
- % Activation (ΔF508-CFTR [1]; [3]): 247.47%
- EC50 (ΔF508-CFTR [1]; [3]): 1230 nM
- % Activation (ΔF508-CFTR [2]): 419.53%
- EC50 (ΔF508-CFTR [2]): 795 nM

SMILES: Cc1cccc(-n2nc(C(C)C)c3c(N4CCC(F)(F)CC4)cc(C(=O)O)nc32)c1 [compound 210, 4-(4,4-difluoropiperidin-1-yl)-1-(3-methylphenyl)-3-(propan-2-yl)-1H-pyrazolo[3,4-b]pyridine-6-carboxylic acid]
- % Activation (ΔF508-CFTR [1]; [4]): 66.65%
- EC50 (ΔF508-CFTR [1]; [5]): 1180 nM
- % Activation (ΔF508-CFTR [2]): 261%
- EC50 (ΔF508-CFTR [2]): 3340 nM

SMILES: CC(C)c1nn(-c2ccnc(N3CCCC3)c2)c2nc(C(=O)O)cc(-c3ccc(N4CCC(C#N)CC4)nc3)c12 [compound 369, 4-[6-(4-cyanopiperidin-1-yl)pyridin-3-yl]-3-(propan-2-yl)-1-[2-(pyrrolidin-1-yl)pyridin-4-yl]-1H-pyrazolo[3,4-b]pyridine-6-carboxylic acid]
- % Activation (ΔF508-CFTR [1]; [4]): 251.6%
- EC50 (ΔF508-CFTR [1]; [5]): 843 nM
- % Activation (ΔF508-CFTR [2]): 389.2%
- EC50 (ΔF508-CFTR [2]): 471 nM
